Source: US9567317B2, “Multicomponent crystalline system comprising nilotinib and selected co-crystal formers” (BASF SE, priority 2012, dated 2017)

Settings: relative humidity changed from 0 to 95% according to the measurement program (FIG. 4)

Row | water content change (water uptake) | Structure (SMILES)
1 | Δm = 4.2% | Cc1cn(-c2cc(NC(=O)c3ccc(C)c(Nc4nccc(-c5cccnc5)n4)c3)cc(C(F)(F)F)c2)cn1.Cl.O.O [Nilotinib monohydrochloride dihydrate form A]
2 | Δm = 3.2% | Cc1cn(-c2cc(NC(=O)c3ccc(C)c(Nc4nccc(-c5cccnc5)n4)c3)cc(C(F)(F)F)c2)cn1.Cl.O [Nilotinib monohydrochloride monohydrate form B]
